Source: US11229623B2 (GlaxoSmithKline Intellectual Property (No.2) Limited, priority 2016, dated 2022)

Molecular target: T1, human TRPV4 (Homo sapiens, UniProt Q9HBA0)
T1 construct: expressed in transfected cells; host or cells: BHK/AC9 cells transduced with BacMam virus
Assay: FLIPR assay for hTRPV4 expressed in BHK cells: inhibition of Agonist Compound-induced calcium signal
Format: cell-based
Conditions: hTRPV4 in BHK/AC9 cells, FLIPR calcium signal, agonist at EC80; reported as range class; read-out: IC50
In short: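 Calcium influx through TRPV4 tracked by Fluo-4 fluorescence on FLIPR. Cells: BHK/AC9 transduced with BacMam-hTRPV4 at MOI 78, 24 h culture post-plating (15,000 cells/well). Dye loading: 2 μM Fluo-4 AM with 500 μM Brilliant Black quencher, 1-1.5 h, room temperature, dark.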

T1 sequence (Q9HBA0 whole entry): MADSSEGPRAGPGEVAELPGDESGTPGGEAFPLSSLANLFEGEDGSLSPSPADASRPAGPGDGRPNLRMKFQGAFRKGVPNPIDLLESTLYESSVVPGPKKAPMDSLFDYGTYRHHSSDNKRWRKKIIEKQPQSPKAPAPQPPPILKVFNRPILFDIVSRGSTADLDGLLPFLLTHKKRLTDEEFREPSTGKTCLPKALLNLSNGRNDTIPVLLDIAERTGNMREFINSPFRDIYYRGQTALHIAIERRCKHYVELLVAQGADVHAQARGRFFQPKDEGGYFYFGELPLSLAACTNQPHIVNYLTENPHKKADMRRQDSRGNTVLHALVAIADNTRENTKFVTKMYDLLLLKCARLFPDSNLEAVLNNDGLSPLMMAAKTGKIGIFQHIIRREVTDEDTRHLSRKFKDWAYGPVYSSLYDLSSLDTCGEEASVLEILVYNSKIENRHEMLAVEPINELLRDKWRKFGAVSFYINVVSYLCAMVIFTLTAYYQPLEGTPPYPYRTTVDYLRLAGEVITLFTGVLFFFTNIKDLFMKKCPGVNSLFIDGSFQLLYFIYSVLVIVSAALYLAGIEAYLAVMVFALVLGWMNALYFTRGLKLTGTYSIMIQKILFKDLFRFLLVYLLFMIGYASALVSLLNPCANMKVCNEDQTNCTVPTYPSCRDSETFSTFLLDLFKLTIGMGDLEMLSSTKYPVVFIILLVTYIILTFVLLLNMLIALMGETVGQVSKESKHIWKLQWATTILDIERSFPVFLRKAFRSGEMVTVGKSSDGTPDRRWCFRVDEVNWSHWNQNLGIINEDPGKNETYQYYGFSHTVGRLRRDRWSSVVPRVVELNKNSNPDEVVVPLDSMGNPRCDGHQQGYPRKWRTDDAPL

SMILES | IC50
N#Cc1ccc(O[C@H]2CN(S(=O)(=O)c3ccc(Cl)cn3)C[C@@]2(O)CO)c(OCC(F)(F)F)c1 [Example 186, 4-(((3S,4R)-1-((5-chloropyridin-2-yl)sulfonyl)-4-hydroxy-4-(hydroxymethyl)pyrrolidin-3-yl)oxy)-3-(2,2,2-trifluoroethoxy) benzonitrile] | 0.01 to 0.1 µM
Cc1ccc(O[C@H]2CN(S(=O)(=O)c3ccc(C(F)(F)F)cc3C#N)C[C@@]2(O)CO)cc1 [Example 51, 2-(((3R,4S)-3-hydroxy-3-(hydroxymethyl)-4-(p-tolyloxy)pyrrolidin-1-yl)sulfonyl)-5-(trifluoromethyl)benzonitrile] | 0.01 to 0.1 µM
CC(C)COc1cc(C#N)c(F)cc1O[C@H]1CN(S(=O)(=O)c2ccc(C#N)nc2)C[C@@]1(O)CO [Example 181, 5-(((3R,4S)-4-(4-cyano-5-fluoro-2-isobutoxyphenoxy)-3-hydroxy-3-(hydroxymethyl)pyrrolidin-1-yl)sulfonyl) picolinonitrile] | 0.0001 to 0.01 µM
COc1cc(C#N)ccc1O[C@H]1CN(S(=O)(=O)c2ccc(C(F)(F)F)cc2C#N)C[C@@]1(O)CO [Example 10, 2-(((3R,4S)-4-(4-cyano-2-methoxyphenoxy)-3-hydroxy-3-(hydroxymethyl)pyrrolidin-1-yl)sulfonyl)-5-(trifluoromethyl)benzonitrile] | 0.01 to 0.1 µM
N#Cc1cc(C(F)(F)F)ccc1S(=O)(=O)N1C[C@H](Oc2ccc(OC(F)(F)F)cc2)[C@](O)(CO)C1 [Example 50, 2-(((3R,4S)-3-hydroxy-3-(hydroxymethyl)-4-(4-(trifluoromethoxy)phenoxy)pyrrolidin-1-yl)sulfonyl)-5-(trifluoromethyl)benzonitrile] | 0.0001 to 0.01 µM
N#Cc1ccc(O[C@H]2CN(S(=O)(=O)c3ccc(C(F)(F)F)cc3C#N)C[C@@]2(O)CO)cc1 [Example 29, 2-(((3R,4S)-4-(4-cyanophenoxy)-3-hydroxy-3-(hydroxymethyl)pyrrolidin-1-yl)sulfonyl)-5-(trifluoromethyl)benzonitrile] | 0.0001 to 0.01 µM
Cc1ccc(S(=O)(=O)N2C[C@H](Oc3cc(F)c(C#N)cc3OCC(C)C)[C@](O)(CO)C2)nn1 [Example 188, 2-fluoro-4-(((3S,4R)-4-hydroxy-4-(hydroxymethyl)-1-((6-methylpyridazin-3-yl)sulfonyl)pyrrolidin-3-yl)oxy)-5-isobutoxybenzonitrile] | 0.01 to 0.1 µM
N#Cc1ccc(O[C@H]2CN(S(=O)(=O)c3ccc(C(F)(F)F)cc3C#N)C[C@@]2(O)CO)c(OCC(F)(F)F)c1 [Example 167, 2-(((3R,4S)-4-(4-cyano-2-(2,2,2-trifluoroethoxy)phenoxy)-3-hydroxy-3-(hydroxymethyl)pyrrolidin-1-yl)sulfonyl)-5-(trifluoromethyl)benzonitrile] | 0.0001 to 0.01 µM
N#Cc1cc(OCc2ccccc2)c(O[C@H]2CN(S(=O)(=O)c3ccc(C(F)(F)F)cc3C#N)C[C@@]2(O)CO)cc1F [Example 163, 5-(benzyloxy)-4-(((3S,4R)-1-((2-cyano-4-(trifluoromethyl)phenyl)sulfonyl)-4-hydroxy-4-(hydroxymethyl)pyrrolidin-3-yl)oxy)-2-fluorobenzonitrile] | 0.0001 to 0.01 µM

The remaining lines, values ahead:

IC50 | SMILES
0.01 to 0.1 µM | Cc1nc(C(F)(F)F)c(S(=O)(=O)N2C[C@H](Oc3ccc(C#N)c(F)c3)[C@](O)(CO)C2)s1 [Example 87, 2-fluoro-4-(((3S,4R)-4-hydroxy-4-(hydroxymethyl)-1-((2-methyl-4-(trifluoromethyl)thiazol-5-yl)sulfonyl)pyrrolidin-3-yl)oxy)benzonitrile]
0.01 to 0.1 µM | C#Cc1ccc(S(=O)(=O)N2C[C@H](Oc3ccc(C#N)c(F)c3)[C@](O)(CO)C2)nc1 [Example 228, 4-(((3S,4R)-1-((5-ethynylpyridin-2-yl)sulfonyl)-4-hydroxy-4-(hydroxymethyl)pyrrolidin-3-yl)oxy)-2-fluorobenzonitrile]
0.01 to 0.1 µM | N#Cc1ccc(O[C@H]2CN(S(=O)(=O)c3cccc(Cl)c3Cl)C[C@@]2(O)CO)cc1F [Example 94, 4-(((3S,4R)-1-((2,3-dichlorophenyl)sulfonyl)-4-hydroxy-4-(hydroxymethyl)pyrrolidin-3-yl)oxy)-2-fluorobenzonitrile]
0.01 to 0.1 µM | N#Cc1ccc(O[C@H]2CN(S(=O)(=O)c3ccc(OC(F)(F)F)cc3Cl)C[C@@]2(O)CO)cc1F [Example 66, 4-(((3S,4R)-1-((2-chloro-4-(trifluoromethoxy)phenyl)sulfonyl)-4-hydroxy-4-(hydroxymethyl)pyrrolidin-3-yl)oxy)-2-fluorobenzonitrile]
0.01 to 0.1 µM | N#Cc1ccc(S(=O)(=O)N2C[C@H](Oc3ccc(C#N)c(F)c3)[C@@](O)(CO)C2)c(Cl)c1 [Example 141, 4-(((3S,4S)-1-((2-chloro-4-cyanophenyl)sulfonyl)-4-hydroxy-4-(hydroxymethyl)pyrrolidin-3-yl)oxy)-2-fluorobenzonitrile]
0.0001 to 0.01 µM | CCC[C@@H](O)[C@]1(O)CN(S(=O)(=O)c2ccc(Cl)cn2)C[C@@H]1Oc1ccc(C#N)c(F)c1 [Example 198, 4-(((3S,4R)-1-((5-chloropyridin-2-yl)sulfonyl)-4-hydroxy-4-((R)-1-hydroxybutyl)pyrrolidin-3-yl)oxy)-2-fluorobenzonitrile]
0.1 to 1 µM | N#Cc1ccc(O[C@H]2CN(S(=O)(=O)c3ccc(Cl)cn3)C[C@]2(O)CO)cc1F [Example 136, 4-(((3S,4S)-1-((5-chloropyridin-2-yl)sulfonyl)-4-hydroxy-4-(hydroxymethyl)pyrrolidin-3-yl)oxy)-2-fluorobenzonitrile]
0.01 to 0.1 µM | COc1cc(Cl)ccc1O[C@H]1CN(S(=O)(=O)c2ccc(C(F)(F)F)cc2C#N)C[C@@]1(O)CO [Example 48, 2-(((3R,4S)-4-(4-chloro-2-methoxyphenoxy)-3-hydroxy-3-(hydroxymethyl)pyrrolidin-1-yl)sulfonyl)-5-(trifluoromethyl)benzonitrile]
0.01 to 0.1 µM | N#Cc1ccc(O[C@H]2CN(S(=O)(=O)c3ccc(Cl)c(OC(F)(F)F)c3)C[C@@]2(O)CO)cc1F [Example 129, 4-(((3S,4R)-1-((4-chloro-3-(trifluoromethoxy)phenyl)sulfonyl)-4-hydroxy-4-(hydroxymethyl)pyrrolidin-3-yl)oxy)-2-fluorobenzonitrile]
0.01 to 0.1 µM | CC(=O)c1ccc(S(=O)(=O)N2C[C@H](Oc3ccc(C#N)c(F)c3)[C@](O)(CO)C2)c(C#N)c1 [Example 72, 4-(((3S,4R)-1-((4-acetyl-2-cyanophenyl)sulfonyl)-4-hydroxy-4-(hydroxymethyl)pyrrolidin-3-yl)oxy)-2-fluorobenzonitrile]
0.01 to 0.1 µM | N#Cc1ccc(O[C@H]2CN(S(=O)(=O)c3ccc(Cl)cc3Cl)C[C@]2(O)CO)cc1F [Example 142, 4-(((3S,4S)-1-((2,4-dichlorophenyl)sulfonyl)-4-hydroxy-4-(hydroxymethyl)pyrrolidin-3-yl)oxy)-2-fluorobenzonitrile]
0.01 to 0.1 µM | N#Cc1cc(C(F)(F)F)ccc1S(=O)(=O)N1C[C@H](Oc2ccc(Cl)cc2)[C@@](O)(CO)C1 [Example 146, 2-(((3S,4S)-4-(4-chlorophenoxy)-3-hydroxy-3-(hydroxymethyl)pyrrolidin-1-yl)sulfonyl)-5-(trifluoromethyl)benzonitrile]
0.0001 to 0.01 µM | N#Cc1ccc(O[C@H]2CN(S(=O)(=O)c3ccc(Cl)cc3Br)C[C@@]2(O)CO)cc1F [Example 120, 4-(((3S,4R)-1-((2-bromo-4-chlorophenyl)sulfonyl)-4-hydroxy-4-(hydroxymethyl)pyrrolidin-3-yl)oxy)-2-fluorobenzonitrile]
